Experimental data as given in patent EP0435693B1, “Pharmaceutical compositions containing 3-oxygermylpropionic acid polymers for inhibiting the degeneration of cells” (SANWA KAGAKU KENKYUSHO CO., LTD., priority 1989, dated 1991).
Read-outs that look alike come from different tables or passages of the source.

System: SD masculine rats with hypohepatia
Format: in vivo
Details: hepatoxic drug alone after carbon tetrachloride
Description: Carbon tetrachloride was administered orally as a hepatoxic substance to SD masculine rats (weighing 500 g ± 50 g; age, 10 months) with hypohepatia (3 groups containing 8-9 rats each) at a dose of 0.5 g/kg, whereby their serum GOT was increased to more than 50 Karmen units after 24 hours. At the same time, 2 mg/kg of indomethacin as a hepatoxic drug (a lenitive), 5 mg/kg of 5-FU as a hepatoxic carcinostatic and 10 mg/kg of tetracycline as a hepatoxic antibiotic were administered orally to each of the animals five times every fourth day.
An additional 20 mg/kg of the composition of Preparation Ex. 1 was administered orally to the medicated group.
Seven days after the completion of medication, the animals were slaughtered to remove the livers, which were then visually observed. Afterwards, the tissue slices were observed under an optical microscope to examine the degree of heteroplasia of the liver cells.
The GOT eluates due to cytoclasis were determined by gathering blood from the tail vein of each animal 24 hours after the administration of carbon tetrachloride, two and ten days after the initiation of medication and on the final date of experimentation.

SMILES	mortality	serum GOT (2 days after the initiation of medication)	serum GOT (10 days)	serum GOT (Final Date)
O=c1[nH]cc(F)c(=O)[nH]1 [5-FU, 5-fluorouracil]	some animals died	–	–	–
COc1ccc2c(c1)c(CC(=O)O)c(C)n2C(=O)c1ccc(Cl)cc1 [Indomethacin]	some animals died	81.3±4.21 Karmen units/ml	91.8±8.35 Karmen units/ml	99.4±1.43 Karmen units/ml
